From patent US20250197671A1, “IRRADIATION-CROSSLINKABLE SILICONE COMPOSITION COMPRISING PT(OCTANE-2,4-DIONE)2 AS A CATALYST” (ELKEM SILICONES FRANCE SAS, priority 2022, published 2025)
Read-outs that look alike come from different tables or passages of the source.

Key:
[1] = Photo-DSC of silicone composition (time and value of thermal peak); details: 365 nm, 14.4 mW/cm^2, 10 ppm Pt, N2 purge
[2] = Solubility of the catalyst in hexamethyldisiloxane (HMDSO); assay type: physicochemical
Source text: Continue additions until obtaining a clear medium, without observing precipitate at the end of stirring.

[3] = Solubility / appearance of catalyst in the silicone composition; details: Photo-DSC formulation, organopolysiloxane A + B, 10 ppm Pt (Example 3)
[4] = Crosslinking time of silicone composition under UV LED irradiation (catalyst activity); details: UV LED 365 nm, 10 ppm Pt, SiH/Si(vinyl)=2:1, bulk setting time
Method: Irradiation: UV LED lamp with a wavelength of 365 nm.
The crosslinking time is measured. It corresponds to the bulk setting time of the system (the bar magnet can no longer stir the system).

[5] = tested on: Escherichia coli WP2 (uvrA-) (pKM 101); test: Ames test (OECD test 471, Bacterial Reverse Mutation Test); assay type: cell-based; details: with or without metabolic activation; 5000, 1500, 150 and 50 μg/plate
Method: (§1) In fact, this compound was analyzed according to the Ames test: the Ames test is a widely used method which uses bacteria for verifying whether a given chemical product may cause DNA mutations in the tested organism.
(§2) Toxicity test (Ames Test, according to the OECD guidelines for chemical product tests-test 471: Bacterial Reverse Mutation Test): Solutions were prepared with Pt(octane-2,4-dione)2.

[6] = tested on: Salmonella typhimurium TA 1535, TA 1537, TA 98, TA 100; test: as above; assay type: cell-based; details: with or without metabolic activation; 5000, 1500, 150 and 50 μg/plate
Method: as §1, §2

[7] = Stability of the catalysed silicone solution without irradiation; assay type: physicochemical; details: with organopolysiloxanes A and B, 10 ppm Pt
Method: A solution comprising a catalyst C1 or C5, together with organopolysiloxanes A and B was prepared according to example 2 (concentration in metal Pt of 10 ppm).
The stability of the solutions was then determined.

[8] = H361-CMR Reproductive Toxicity Category 2; cited from earlier work

Compound	Time to arrive at the thermal peak [1] [s]	Value of the thermal peak (mW/s) [1] [mW/s]	Appearance [3]	other results
CCC(=O)C=C(CC)[O][Pt][O]C(=CC(=O)CC)CC [Catalyst C3, Pt(heptane-3,5-dione)2]	240	0.53	Clear yellow	Solubility [2]: 2500 ppm Pt
trans Pt(octane-2,4-dione)2 [C1 Trans]	140	0.78	Soluble clear	
Pt(octane-2,4-dione)2 [C1 Trans:cis ratio = 11:89]				Crosslinking time [4]: 1 min
CCC(=O)C=C(C)[O][Pt][O]C(C)=CC(=O)CC [Catalyst C4, Pt(hexane-2,4-dione)2]	235	0.47	Hazy yellow	Solubility ([2]; in hexamethyldisiloxane (HMDSO) at 20° C.): 500 ppm Pt
Pt(octane-2,4-dione)2 [Catalyst C1]				mutagenic modification (Ames test) [5]: did not induce any mutagenic modification; mutagenic modification (Ames test) [6]: did not induce any mutagenic modification; Solubility [2]: 7000 ppm Pt; time solution remained stable ([7]; exposed to ambient light): over 7 hours; time solution remained stable ([7]; protected from light): over 20 days
CC(=O)/C=C(/C)O.CC(=O)/C=C(/C)O.[Pt] [Catalyst C2, Pt(acac)2]	140	0.65		reproductive toxicity classification [8]: suspected of damaging fertility or the unborn child
cis-Pt(octane-2,4-dione)2 [C1 Cis]	140	0.85	Soluble clear	
